Data as given in US4468383A, “Dimeric enkephalins” (The United States of America as represented by the …, priority 1982, dated 1984).

Test system: NG108-15 cells (a neuroblastoma-glioma hybrid cell line)
Experiment: In vitro bioassay in NG108-15 cells stimulated by prostaglandin E1
Assay type: cell-based
Conditions: read-out: IC50 in NG108-15 cells stimulated by PGE1

## CC(C)C[C@H](NC(=O)[C@H](Cc1ccccc1)NC(=O)CNC(=O)[C@@H](C)NC(=O)[C@@H](N)Cc1ccc(O)cc1)C(=O)NCCNC(=O)[C@H](CC(C)C)NC(=O)[C@H](Cc1ccccc1)NC(=O)CNC(=O)[C@@H](C)NC(=O)[C@@H](N)Cc1ccc(O)cc1 [DPE2]
  IC50: ~0.15 nM
